According to ChEMBL document CHEMBL5257016, “Rho Kinase (ROCK) Inhibitors and Their Therapeutic Potential” (J Med Chem, 2016):
pIC50, pKi: −log10 of the molar value. Blank lines part the entries; values can stand above or below the compound they belong to.

How the values were obtained:
[1] = Half life of Wistar rat at 0.910 mg/kg, po and measured upto 7 hrs by HPLC/MS analysis; type: ADME, organism-based; settings: in vivo, dose 0.91 mg/kg
[2] = Clearance of Wistar rat at 0.910 mg/kg, po and measured upto 7 hrs by HPLC/MS analysis; type: ADME, organism-based; settings: in vivo, dose 0.91 mg/kg
[3] = Oral bioavailability of Wistar rat at 0.910 mg/kg and measured upto 7 hrs by HPLC/MS analysis; type: ADME, organism-based; settings: in vivo, dose 0.91 mg/kg
[4] = target: Rho-associated protein kinase 2 (Rattus norvegicus, UniProt Q62868); experiment: Inhibition of ROCK2 in rat A7R5 cells assessed as MLC phosphorylation at T18/S19 by ELISA; type: cell-based
[5] = Stability of compound in human plasma assessed as half life at 1 uM by LC-MS/MS analysis; type: ADME, cell-free
[6] = target: T1, Rho-associated protein kinase 2 (Homo sapiens, UniProt O75116); experiment: Inhibition of ROCK2 (unknown origin) using 33P-ATP as substrate and measured after 120 mins by radiometric analysis
T1 sequence (O75116 whole entry, the tested form may be a part): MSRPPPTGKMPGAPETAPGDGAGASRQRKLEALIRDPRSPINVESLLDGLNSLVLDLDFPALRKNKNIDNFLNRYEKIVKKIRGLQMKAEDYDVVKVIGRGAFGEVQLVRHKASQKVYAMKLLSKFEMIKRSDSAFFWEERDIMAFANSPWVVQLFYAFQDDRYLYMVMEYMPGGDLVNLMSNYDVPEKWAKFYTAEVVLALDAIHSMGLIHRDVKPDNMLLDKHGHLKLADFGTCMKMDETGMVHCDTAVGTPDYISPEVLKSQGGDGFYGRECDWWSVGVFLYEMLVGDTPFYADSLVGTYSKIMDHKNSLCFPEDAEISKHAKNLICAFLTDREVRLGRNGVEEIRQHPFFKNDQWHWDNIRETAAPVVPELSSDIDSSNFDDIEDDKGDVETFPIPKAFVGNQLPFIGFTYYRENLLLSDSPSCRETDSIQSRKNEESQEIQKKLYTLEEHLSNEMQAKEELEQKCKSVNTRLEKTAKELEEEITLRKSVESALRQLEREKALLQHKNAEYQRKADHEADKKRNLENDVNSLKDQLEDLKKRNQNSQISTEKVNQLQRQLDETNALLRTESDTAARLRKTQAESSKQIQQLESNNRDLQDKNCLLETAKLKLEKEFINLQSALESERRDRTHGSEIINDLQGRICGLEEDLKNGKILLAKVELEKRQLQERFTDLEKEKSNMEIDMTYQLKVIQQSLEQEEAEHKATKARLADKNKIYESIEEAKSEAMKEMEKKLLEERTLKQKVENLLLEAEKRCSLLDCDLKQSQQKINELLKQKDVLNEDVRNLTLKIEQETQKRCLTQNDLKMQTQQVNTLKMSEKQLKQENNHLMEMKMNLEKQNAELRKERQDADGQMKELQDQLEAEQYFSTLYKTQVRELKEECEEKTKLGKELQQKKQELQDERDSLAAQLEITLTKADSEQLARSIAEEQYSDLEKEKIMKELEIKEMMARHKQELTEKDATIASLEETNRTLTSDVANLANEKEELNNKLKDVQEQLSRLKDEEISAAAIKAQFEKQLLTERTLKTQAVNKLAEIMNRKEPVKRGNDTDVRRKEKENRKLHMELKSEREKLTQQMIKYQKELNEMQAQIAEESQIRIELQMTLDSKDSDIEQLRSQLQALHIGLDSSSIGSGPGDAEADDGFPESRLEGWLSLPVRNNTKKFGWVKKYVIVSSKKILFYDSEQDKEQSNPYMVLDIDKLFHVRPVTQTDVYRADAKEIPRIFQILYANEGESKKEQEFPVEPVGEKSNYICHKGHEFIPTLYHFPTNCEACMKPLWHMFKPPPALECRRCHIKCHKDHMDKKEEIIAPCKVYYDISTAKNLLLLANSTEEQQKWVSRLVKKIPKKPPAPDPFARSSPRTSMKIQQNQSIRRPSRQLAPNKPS

[7] = target: T1, Rho-associated protein kinase 2; experiment: Inhibition of GST-tagged ROCK2 (5 to 554 residues) (unknown origin) using S6-peptide as substrate preincubated for 15 mins followed by 33P-ATP addition and measured after 120 mins by scintillation counter analysis
[8] = target: T2, Rho-associated protein kinase 1 (Homo sapiens, UniProt Q13464); experiment: Inhibition of GST-tagged ROCK1 (1 to 535 residues) (unknown origin) using S6-peptide as substrate preincubated for 15 mins followed by 33P-ATP addition and measured after 120 mins by scintillation counter analysis
T2 sequence (Q13464 whole entry, the tested form may be a part): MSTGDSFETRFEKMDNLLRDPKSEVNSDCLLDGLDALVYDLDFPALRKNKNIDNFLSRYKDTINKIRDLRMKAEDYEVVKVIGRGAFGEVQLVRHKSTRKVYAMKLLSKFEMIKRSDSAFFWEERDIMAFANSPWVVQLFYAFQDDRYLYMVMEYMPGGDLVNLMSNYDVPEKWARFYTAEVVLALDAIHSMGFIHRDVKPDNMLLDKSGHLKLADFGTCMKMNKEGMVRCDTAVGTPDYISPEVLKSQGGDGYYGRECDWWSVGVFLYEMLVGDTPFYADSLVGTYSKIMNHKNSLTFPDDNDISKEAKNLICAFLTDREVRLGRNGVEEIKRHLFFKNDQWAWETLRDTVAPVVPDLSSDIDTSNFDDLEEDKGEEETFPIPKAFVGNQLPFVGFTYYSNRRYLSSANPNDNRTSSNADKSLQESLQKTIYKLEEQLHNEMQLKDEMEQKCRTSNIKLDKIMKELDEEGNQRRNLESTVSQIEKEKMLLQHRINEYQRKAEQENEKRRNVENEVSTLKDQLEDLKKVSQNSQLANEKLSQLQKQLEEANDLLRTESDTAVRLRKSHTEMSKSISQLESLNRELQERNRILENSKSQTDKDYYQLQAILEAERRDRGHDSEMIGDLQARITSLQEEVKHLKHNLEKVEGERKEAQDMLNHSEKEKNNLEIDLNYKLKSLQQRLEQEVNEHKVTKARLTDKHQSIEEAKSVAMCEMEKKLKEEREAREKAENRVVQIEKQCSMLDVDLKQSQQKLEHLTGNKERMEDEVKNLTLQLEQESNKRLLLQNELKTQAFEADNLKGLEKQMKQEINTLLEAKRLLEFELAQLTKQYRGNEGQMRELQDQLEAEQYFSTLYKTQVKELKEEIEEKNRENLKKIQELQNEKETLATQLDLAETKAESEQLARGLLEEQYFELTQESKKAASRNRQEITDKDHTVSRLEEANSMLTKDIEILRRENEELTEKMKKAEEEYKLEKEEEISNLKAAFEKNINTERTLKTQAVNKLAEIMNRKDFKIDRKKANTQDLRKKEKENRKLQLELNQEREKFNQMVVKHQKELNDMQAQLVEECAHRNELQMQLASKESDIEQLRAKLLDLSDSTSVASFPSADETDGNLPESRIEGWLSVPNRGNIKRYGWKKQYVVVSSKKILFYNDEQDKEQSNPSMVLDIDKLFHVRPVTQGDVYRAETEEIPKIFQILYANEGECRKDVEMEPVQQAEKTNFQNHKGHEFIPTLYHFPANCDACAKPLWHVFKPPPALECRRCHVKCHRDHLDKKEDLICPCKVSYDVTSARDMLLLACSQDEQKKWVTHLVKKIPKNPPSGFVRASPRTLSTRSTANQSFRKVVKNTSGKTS

[9] = target: T1, Rho-associated protein kinase 2; experiment: Inhibition of ROCK2 (unknown origin) using STK2 as substrate incubated for 4 hrs by HTRF assay
[10] = target: cAMP-dependent protein kinase (PKA) (Homo sapiens, UniProt P22694+P17612+P22612); experiment: Inhibition of PKA (unknown origin); type: protein assay
[11] = target: T1, Rho-associated protein kinase 2; experiment: Inhibition of ROCK2 (unknown origin)
[12] = target: T2, Rho-associated protein kinase 1; experiment: Inhibition of ROCK1 (unknown origin)
[13] = target: Ribosomal protein S6 kinase alpha-1 (Homo sapiens, UniProt Q15418); experiment: Inhibition of RSK1 (unknown origin)
Sequence of Ribosomal protein S6 kinase alpha-1 (Q15418 whole entry): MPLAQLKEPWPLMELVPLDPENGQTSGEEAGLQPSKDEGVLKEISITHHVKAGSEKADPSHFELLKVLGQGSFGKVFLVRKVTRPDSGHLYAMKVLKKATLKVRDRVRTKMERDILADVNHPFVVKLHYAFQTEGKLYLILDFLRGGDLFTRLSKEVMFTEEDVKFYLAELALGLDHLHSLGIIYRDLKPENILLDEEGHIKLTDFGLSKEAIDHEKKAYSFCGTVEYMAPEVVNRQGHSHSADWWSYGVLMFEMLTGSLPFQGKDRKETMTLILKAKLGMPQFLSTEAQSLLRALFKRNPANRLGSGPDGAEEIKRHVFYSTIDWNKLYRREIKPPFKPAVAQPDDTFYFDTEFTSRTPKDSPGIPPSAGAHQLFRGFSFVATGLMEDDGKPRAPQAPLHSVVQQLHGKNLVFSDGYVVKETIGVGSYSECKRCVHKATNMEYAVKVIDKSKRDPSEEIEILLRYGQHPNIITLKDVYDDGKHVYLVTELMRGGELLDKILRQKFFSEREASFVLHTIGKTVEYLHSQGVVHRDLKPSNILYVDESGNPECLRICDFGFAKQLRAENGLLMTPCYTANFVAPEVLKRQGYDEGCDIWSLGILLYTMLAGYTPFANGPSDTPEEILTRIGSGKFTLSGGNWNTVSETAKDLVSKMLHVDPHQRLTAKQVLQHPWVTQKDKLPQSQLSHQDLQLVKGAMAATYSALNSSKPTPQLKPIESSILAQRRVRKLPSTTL

[14] = target: RAC-alpha serine/threonine-protein kinase (Homo sapiens, UniProt P31749); experiment: Inhibition of AKT1 (unknown origin)
Sequence of RAC-alpha serine/threonine-protein kinase (P31749 whole entry): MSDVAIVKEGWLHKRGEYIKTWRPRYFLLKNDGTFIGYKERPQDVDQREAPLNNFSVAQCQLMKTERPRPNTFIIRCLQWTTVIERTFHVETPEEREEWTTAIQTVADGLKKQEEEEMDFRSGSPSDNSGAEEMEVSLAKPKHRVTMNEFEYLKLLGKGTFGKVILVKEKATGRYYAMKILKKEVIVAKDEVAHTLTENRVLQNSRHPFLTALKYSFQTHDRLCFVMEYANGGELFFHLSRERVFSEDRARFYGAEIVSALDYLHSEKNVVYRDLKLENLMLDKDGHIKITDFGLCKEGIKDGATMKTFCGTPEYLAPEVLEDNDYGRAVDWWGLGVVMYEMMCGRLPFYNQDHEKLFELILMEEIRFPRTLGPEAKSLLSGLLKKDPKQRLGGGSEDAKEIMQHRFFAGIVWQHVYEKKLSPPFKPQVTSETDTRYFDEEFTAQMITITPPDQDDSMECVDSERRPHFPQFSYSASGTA

[15] = Inhibition of p70S6K (unknown origin); set-up: species or system Homo sapiens
[16] = target: RAC-beta serine/threonine-protein kinase (Homo sapiens, UniProt P31751); experiment: Inhibition of AKT2 (unknown origin)
Sequence of RAC-beta serine/threonine-protein kinase (P31751 whole entry): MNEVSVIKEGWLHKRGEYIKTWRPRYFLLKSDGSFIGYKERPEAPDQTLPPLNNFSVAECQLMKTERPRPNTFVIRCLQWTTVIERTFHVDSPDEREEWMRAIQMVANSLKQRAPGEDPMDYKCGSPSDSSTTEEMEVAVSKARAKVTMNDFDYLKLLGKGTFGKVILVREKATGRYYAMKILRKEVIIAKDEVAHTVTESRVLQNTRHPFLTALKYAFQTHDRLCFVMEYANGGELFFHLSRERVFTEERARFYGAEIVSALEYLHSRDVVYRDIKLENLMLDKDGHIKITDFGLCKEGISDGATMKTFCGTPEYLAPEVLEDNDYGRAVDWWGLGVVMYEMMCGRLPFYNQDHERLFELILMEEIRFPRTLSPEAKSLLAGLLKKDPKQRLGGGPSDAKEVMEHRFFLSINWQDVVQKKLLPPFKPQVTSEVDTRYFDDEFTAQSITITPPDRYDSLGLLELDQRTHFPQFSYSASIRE

[17] = target: T1, Rho-associated protein kinase 2; experiment: Inhibition of human recombinant ROCK2 assessed as inhibition constant by microfluidic mobility shift method
[18] = target: Nicotinamide phosphoribosyltransferase (Homo sapiens, UniProt P43490); experiment: Inhibition of recombinant human C-terminally-His tagged NAMPT incubated for 2 to 3 hrs by TR-FRET assay
Sequence of Nicotinamide phosphoribosyltransferase (P43490 whole entry): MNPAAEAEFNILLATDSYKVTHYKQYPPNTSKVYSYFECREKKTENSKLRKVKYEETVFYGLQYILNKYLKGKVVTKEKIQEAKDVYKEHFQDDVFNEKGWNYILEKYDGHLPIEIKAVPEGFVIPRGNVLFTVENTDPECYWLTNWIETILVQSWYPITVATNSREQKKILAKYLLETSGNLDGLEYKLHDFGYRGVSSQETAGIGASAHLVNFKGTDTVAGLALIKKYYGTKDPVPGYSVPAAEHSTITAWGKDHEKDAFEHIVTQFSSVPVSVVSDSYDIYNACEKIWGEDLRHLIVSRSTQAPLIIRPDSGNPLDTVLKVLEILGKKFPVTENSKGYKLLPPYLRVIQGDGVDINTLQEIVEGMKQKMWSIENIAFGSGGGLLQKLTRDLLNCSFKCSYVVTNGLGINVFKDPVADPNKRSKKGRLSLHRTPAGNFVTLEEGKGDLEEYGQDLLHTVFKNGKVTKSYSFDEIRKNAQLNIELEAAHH

Mus musculus [19] = organism: Mus musculus; experiment: Antidiabetic activity in oxygen induced retinopathy mouse model assessed as decrease in pathological neovascularization at 0.4 %, thrice daily for 6 days by microscopic analysis; type: functional; set-up: scale not given: the % may be the effect or the level left; settings: time 6 day
Mus musculus [20] = organism: Mus musculus; experiment: Antidiabetic activity in oxygen induced retinopathy mouse model assessed as decrease in pathological neovascularization at 0.8 %, thrice daily for 6 days by microscopic analysis; type: functional; set-up: scale not given: the % may be the effect or the level left; settings: time 6 day
Mus musculus [21] = organism: Mus musculus; experiment: Antidiabetic activity in oxygen induced retinopathy mouse model assessed as decrease in fluorescein leakage at 0.8 %, thrice daily for 6 days by fluorescein angiography; type: functional; set-up: scale not given: the % may be the effect or the level left; settings: time 6 day
[22] = Induction of neurogenesis in human Embryonic stem cells assessed as cell proliferation incubated for 4 days by CellTiterGlo luminescence assay; type: functional, cell-based; settings: 96 h
[23] = target: T2, Rho-associated protein kinase 1; experiment: Inhibition of human recombinant ROCK1 using S6-peptide as substrate as substrate preincubated for 10 mins followed by 33P-labeled ATP addition and measured after 20 mins by Micro-Beta counter analysis
[24] = target: T2, Rho-associated protein kinase 1; experiment: Inhibition of human ROCK1
[25] = target: T1, Rho-associated protein kinase 2; experiment: Inhibition of ROCK2 (unknown origin) assessed as inhibition constant
[26] = target: T1, Rho-associated protein kinase 2; experiment: Inhibition of human recombinant ROCK2 using 5FAM-AKRRRLSSLRA-COOH as substrate preincubated for 10 mins followed by substrate addition in presence of ATP and measured after 45 mins by TR-FRET assay
[27] = target: T2, Rho-associated protein kinase 1; experiment: Inhibition of ROCK1 (unknown origin) assessed as inhibition constant

Compound: COc1cccc(CN(CCN(C)C)C(=O)c2n[nH]c3cc(-c4cn[nH]c4)ccc23)c1
pIC50 [9]: > 9.00
IC50 [10]: 184 nM

Compound: O=C(Nc1ccc(-c2cn[nH]c2)cc1)OCc1ccccc1
IC50 [10]: > 20000 nM

Compound: C[C@@H](N)c1ccc(C(=O)Nc2ccncc2)cc1
pIC50 [11]: 6.70

Compound: NC(=O)c1cc(F)c(N[C@H]2CC[C@H](N)CC2)cc1F
pIC50 [11]: 7.59

Compound: NC[C@@](O)(c1ccc(Cl)cc1)c1ccc(-c2cn[nH]c2)cc1 [AT-13148]
pIC50 [12]: > 8.00
pIC50 [13]: 7.07
pIC50 [14]: 7.42
pIC50 [15]: > 8.00
pIC50 [16]: 6.40
pIC50 [11]: > 8.00
IC50 [10]: < 10 nM

Compound: O=C(NCc1cccc(O)c1)Nc1nc(-c2ccncc2)cs1
pIC50 [12]: 7.84

Compound: C[C@H]1CNCCCN1S(=O)(=O)c1cccc2cncc(F)c12
Activity (Mus musculus [19]): 23%
Activity (Mus musculus [20]): 41.9%
Activity (Mus musculus [21]): 58.4%

Compound: COc1cccc(CNC(=O)c2c[nH]c3cc(-c4cn[nH]c4)ccc23)c1
pIC50 [9]: > 9.00
IC50 [10]: 3340 nM

Compound: Cc1nnnn1-c1ccc(C(=O)NCc2cccc(C(=O)NC3=NC4CCN(C)CC4S3)c2)cc1 (stereo unspecified)
pIC50 [11]: 8.22

Compound: COc1cc(-c2cn[nH]c2)ccc1NC(=O)CCc1ccccc1
pIC50 [22]: 7.08

Compound: O=C(NCc1c(Cl)cccc1Cl)Nc1ccc2[nH]ncc2c1
pIC50 [11]: 7.70

Compound: COc1cccc(CNC(=O)c2c[nH]c3ccc(-c4cn[nH]c4)cc23)c1
pIC50 [9]: 7.17

Compound: COc1cccc(CNC(=O)c2nn(C)c3cc(-c4cn[nH]c4)ccc23)c1
pIC50 [9]: > 9.00
IC50 [10]: 1520 nM

Compound: O=C(Nc1ccc(-c2ccncc2)cc1)N[C@@H](CO)c1ccccc1
pIC50 [24]: 7.07

Compound: O=C(Nc1ccc(-c2cn[nH]c2)cc1)[C@@H]1CNC[C@H]1c1ccccc1
pIC50 [11]: 7.48

Compound: C[C@@H](N)[C@H]1CC[C@H](C(=O)Nc2ccnc3[nH]ccc23)CC1
pKi [25]: 8.00

Compound: OCCOc1cccc(CN2CC[C@@H](Nc3cccc4cnccc34)C2)c1
pKi [27]: 8.30
pKi [25]: 7.85

Compound: COc1cccc(CNC(=O)c2[nH]c3cc(-c4cn[nH]c4)ccc3c2CN(C)C)c1
IC50 [10]: 1510 nM

Further lines, results first:

half-life [1]: 1.2 h
CL/F [2]: 28.3 mL/min/kg
bioavailability [3]: 48%
Compound: Cc1c[nH]c2nccc(Oc3c(F)cc(Nc4cc(Cl)nc(N)n4)cc3F)c12 [BAY-549]

pIC50 [4]: 6.62
half-life at 1 µM [5]: < 5 min
pIC50 [6]: 8.52
Compound: O=C(OCC1CCCO1)c1cccc(CN2CCCC(Nc3ccc4[nH]ncc4c3)C2)c1 (stereo unspecified)

pIC50 [7]: 6.27
pIC50 [8]: 6.09
Compound: NCc1ccc(Oc2ccc3c(c2)B(O)OC3)c(F)c1

pIC50 [9]: 8.40
IC50 [10]: 1530 nM
Compound: COc1cccc(CNC(=O)c2nc3ccc(-c4cn[nH]c4)cc3[nH]2)c1

pKi [17]: 7.44
Compound: O=c1[nH]ccc2cc(OC3CCNCC3)ccc12 [SAR-407899 FREE BASE]

pIC50 [18]: 7.35
Compound: O=C(Nc1ccc(-c2n[nH]c(=O)c3c2CCCC3)cc1)N1Cc2ccc(F)cc2C1

pIC50 [9]: 8.80
IC50 [10]: 6740 nM
Compound: COc1cccc(CNC(=O)c2cc3ccc(-c4cn[nH]c4)cc3[nH]2)c1

pIC50 [9]: > 9.00
IC50 [10]: 3340 nM
Compound: COc1cccc(CNC(=O)c2n[nH]c3cc(-c4cn[nH]c4)ccc23)c1

pIC50 [9]: 7.77
IC50 [10]: > 20000 nM
Compound: COc1cccc(CNC(=O)c2cc3cc(-c4cn[nH]c4)ccc3[nH]2)c1

pIC50 [18]: 7.36
Compound: O=C(Nc1ccc(-c2n[nH]c(=O)c3c2CCCC3)cc1)N1Cc2ccc(Cl)cc2C1

pIC50 [9]: 7.17
Compound: COc1cccc(CNC(=O)c2n[nH]c3ccc(-c4cn[nH]c4)cc23)c1

pIC50 [23]: 7.70
Compound: Nc1nc(Nc2ccc(Oc3ccc4[nH]ncc4c3)c(F)c2)cc(-c2ccncc2)n1

pIC50 [11]: 9.00
Compound: N#Cc1c[nH]c2nccc(Oc3c(F)cc(Nc4ccnc(N)n4)cc3F)c12

pIC50 [7]: 6.66
pIC50 [8]: 6.60
Compound: Cc1c(Oc2ccc(CN)cc2F)ccc2c1B(O)OC2

pIC50 [23]: 8.22
Compound: Nc1nc(Nc2ccc(Oc3ccc4[nH]ncc4c3)c(F)c2)cc(N2C[C@@H]3CCCN[C@@H]3C2)n1

pIC50 [9]: 8.22
IC50 [10]: > 20000 nM
Compound: COc1cccc(CN(C(=O)c2n[nH]c3cc(-c4cn[nH]c4)ccc23)C2CC2)c1

pIC50 [7]: 6.47
pIC50 [8]: 6.14
Compound: NCc1ccc(Oc2ccc3c(c2)B(O)OC3)c(Cl)c1

pIC50 [26]: 7.70
Compound: COc1nc(Nc2ccc3[nH]ncc3c2)nc(N2CCNCC2)n1

pIC50 [11]: 8.05
Compound: O=C(Cc1ccccc1Cl)Nc1ccc(-c2cn[nH]c2)cc1OCCN1CCCC1
